Values joined by “and” are separate entries in the source; they are usually repeats but may differ in a detail not shown here. Equal values may be shown once.
Target: Protein farnesyltransferase subunit beta/geranylgeranyltransferase type-1 subunit alpha (Homo sapiens, UniProt P49354+P49356)
Test: FTase Scintillation Proximity Assay
Conditions: pH 7.5; 22 °C
Method: Compounds were tested as inhibitors of FTase in vitro using purified human enzyme to catalyze the reaction between [3H] FPP and a biotinylated peptide substrate. Reaction was terminated by addition of streptavidin scintillation proximity assay beads (Amersham), and the mixtures were subsequently analyzed by scintillation counting.

Compound: Cn1cncc1[C@@](N)(c1ccc(Cl)cc1)c1ccc2c(c1)c(-c1cccc(Cl)c1)cc(=O)n2C (racemic) [Racemic mixture]
- IC50: 7.9 nM and 0.86 nM
